T1: Arabidopsis thaliana HPPD (AtHPPD) (Arabidopsis thaliana, UniProt P93836)
T1 construct: expressed in transfected cells; host or cells: E. coli BL21 (DE3), pET16 vector
T1 sequence (P93836 1-445): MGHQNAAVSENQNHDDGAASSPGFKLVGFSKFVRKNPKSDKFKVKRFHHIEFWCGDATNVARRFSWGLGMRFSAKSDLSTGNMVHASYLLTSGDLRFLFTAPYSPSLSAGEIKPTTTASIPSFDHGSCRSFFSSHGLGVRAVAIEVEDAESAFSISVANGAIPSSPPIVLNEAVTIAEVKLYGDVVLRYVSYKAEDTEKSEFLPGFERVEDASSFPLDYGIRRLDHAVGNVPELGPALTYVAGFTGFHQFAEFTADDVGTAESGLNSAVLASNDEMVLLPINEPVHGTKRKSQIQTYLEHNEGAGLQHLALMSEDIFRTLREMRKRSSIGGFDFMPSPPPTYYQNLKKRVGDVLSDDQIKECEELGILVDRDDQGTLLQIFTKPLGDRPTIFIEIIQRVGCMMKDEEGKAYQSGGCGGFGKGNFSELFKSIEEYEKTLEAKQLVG

B1: AtHPPD: HPPD from Arabidopsis thaliana hppd cDNA (accession no. AF047834) (protein, UniProt P93836 1-445, looked up)
4-hydroxyphenylpyruvate …: MGHQNAAVSENQNHDDGAASSPGFKLVGFSKFVRKNPKSDKFKVKRFHHIEFWCGDATNVARRFSWGLGMRFSAKSDLSTGNMVHASYLLTSGDLRFLFTAPYSPSLSAGEIKPTTTASIPSFDHGSCRSFFSSHGLGVRAVAIEVEDAESAFSISVANGAIPSSPPIVLNEAVTIAEVKLYGDVVLRYVSYKAEDTEKSEFLPGFERVEDASSFPLDYGIRRLDHAVGNVPELGPALTYVAGFTGFHQFAEFTADDVGTAESGLNSAVLASNDEMVLLPINEPVHGTKRKSQIQTYLEHNEGAGLQHLALMSEDIFRTLREMRKRSSIGGFDFMPSPPPTYYQNLKKRVGDVLSDDQIKECEELGILVDRDDQGTLLQIFTKPLGDRPTIFIEIIQRVGCMMKDEEGKAYQSGGCGGFGKGNFSELFKSIEEYEKTLEAKQLVG
B2: GmHPPD: the native G. max HPPD (Accession number: ABQ96868) (protein)
chain: MPIPCNEIQAQAQAQAQPGFKLVGFKNFVRTNPKSDRFQVNRFHHIEFWCTDATNASRRFSWGLGMPIVAKSDLSTGNQIHASYLLRSGDLSFLFSAPYSPSLSAGSSAASSASIPSFDAATCLAFAAKHGFGVRAIALEVADAEAAFSASVAKGAEPASPPVLVDDRTGFAEVRLYGDVVLRYVSYKDAAPQAPHADPSRWFLPGFEAAASSSSFPELDYGIRRLDHAVGNVPELAPAVRYLKGFSGFHEFAEFTAEDVGTSESGLNSVVLANNSETVLLPLNEPVYGTKRKSQIETYLEHNEGAGVQHLALVTHDIFTTLREMRKRSFLGGFEFMPSPPPTYYANLHNRAADVLTVDQIKQCEELGILVDRDDQGTLLQIFTKPVGDRPTIFIXIIQRIGCMVEDEEGKVYQKGACGGFGKGNFSELFKSIEEYEKTLEAKRTA
modifications: not fully specified; X: residue not identified in the source

Columns and labels:
[1] = system: Arabidopsis control (wt, non-transformed) plants; experiment: In-planta screen, control (non-transformed, wt) plants; format: in vivo
Text: The hppd coding region was cloned into pPA35H binary vector under the control of the CaMV35S constitutive promoter and HSP terminator and was used to transform Arabidopsis plants using agrobacterium according to the dipping flower method, as essentially described in WO 2018/178975. T1 generation transformed seeds were germinated on Basta selection (Bayer) according to manufacturer instructions. […] HPPD resistant plants were detected one-week post germination.

[2] = system: Arabidopsis plants transformed with Trichoderma spp-HPPD gene; experiment: In-planta screen of plants transformed with fungal HPPD; format: in vivo
Method: The hppd coding region was cloned into pPA35H binary vector under the control of the CaMV35S constitutive promoter and HSP terminator and was used to transform Arabidopsis plants using agrobacterium according to the dipping flower method, as essentially described in WO 2018/178975. […] 3-4 days post germination, plants were treated with 0.1% and 0.05% Tembotrione (Laudis (Bayer)). HPPD resistant plants were detected one-week post germination.

[3] = system: HPPD derived from the novel Trichoderma fungus (TP); experiment: Bacterial HPPD-activity assay, E. coli BL21 (DE3) transformed with Trichoderma HPPD, brown halo; format: cell-based, Trichoderma spp.; conditions: E. coli BL21 (DE3) on agar screen plates, 25° C., 4 days
Method: (§1) E. coli BL21 (DE3) were transformed with the expression vector and monitored for HPPD activity using a colorimetric method as essentially explained in Rocaboy-Faquet. E. et al. (DOI: 10.1007/s00253-014-5793-5) with two minor modifications, namely: 1) The transformed bacteria were inoculated on an agar based medium instead of a liquid medium; 2) The screen was performed at 25° C. for 4 days.
(§2) The screen media was prepared with a concentration gradient of HPPD inhibitors at the indicated concentrations and the transformed bacteria were inoculated on the screening agar plates. HPPD activity was detected by a brown halo resulting from the HPPD-mediated conversion of p-hydroxyphenylpyruvate (HPP) into homogentisate (HGA), which later is oxidized to a melanin-like pigment. Tembotrione resistance of the transformed bacteria was compared to that of plates inoculated with E. coli BL21 (DE3) transformed with either an empty pET16 vector or a pET16 vector transformed with Arabidopsis thaliana hppd cDNA (accession no. AF047834).

[4] = target: T1, Arabidopsis thaliana HPPD (AtHPPD); experiment: Bacterial HPPD-activity assay, E. coli BL21 (DE3) transformed with Arabidopsis thaliana hppd cDNA; format: cell-based; conditions: E. coli BL21 (DE3) on agar plates with concentration gradient of HPPD inhibitors, 25° C., 4 days
Method: as §1, §2

[5] = system: G. max HPPD; experiment: HPPD-activity screen of soy HPPD mutants in E. coli BL21 (DE3); format: cell-based
Text: A brown halo is indicative of HPPD activity • GmHPPD SEQ ID NO: 118 ([…] […] […] […] […] […] […] AADVLTVDQIKQCEELGILVDRDDQGTLLQIFTKPVGDRPTIFIXIIQRIGC […]), the native G. max HPPD (Accession number: ABQ96868) • GmHPPD.1=GmHPPD (SEQ ID NO: 118) mutated to substitute its motif 1 with motif 1 of SEQ ID NO: 1—i.e. to include amino acid sequences SEQ ID NO: 9-10 or 38; • GmHPPD.2=GmHPPD (SEQ ID NO: 118) mutated to substitute its motif 6.2 (SEQ ID NO: 68) first Y with motif 6.2 of SEQ ID NO: 1 (SEQ ID NO: 20)—i.e. to include the mutation Tyr185Phe to include SEQ ID NO: 157; • GmHPPD.4=GmHPPD (SEQ ID NO: 118) mutated to substitute its motif 2.1 (SEQ ID NO: 57) with motif 2.1 of SEQ ID NO: 1 (SEQ ID NO: 11)—i.e. to include the mutation Ala254Trp to include SEQ ID NO: 129.

[6] = system: Camelina plants; experiment: In-planta screen of soy HPPD mutants; format: in vivo; conditions: T1 Camelina, Laudis (Tembotrione) 0.075% three days post seeding, images 19 days post treatment
Method: T1 generation transformed seeds of Camelina plants with the Soy HPPD (GmHPPD) mutated gene as compared to wt. Plant were treated with Laudis (Tembotrione) 0.075% three days post seeding. EGFP transformed plants were used as control. Images taken 19 days post treatment. The following were tested: • GmHPPD—SEQ ID NO: 118 the native G. max HPPD (Accession number: ABQ96868) • GmHPPD.1=GmHPPD (SEQ ID NO: 118) mutated to substitute its motif 1 with motif 1 of SEQ ID NO: 1—i.e. to include amino acid sequences set forth in SEQ ID NO: 9-10 or 38; • GmHPPD.2=GmHPPD (SEQ ID NO: 118) mutated to substitute its motif 6.2 (SEQ ID NO: 68) first Y with motif 6.2 of SEQ ID NO: 1 (SEQ ID NO: 20)—i.e. to include the mutation Tyr185Phe to include SEQ ID NO: 157; • GmHPPD.3=GmHPPD (SEQ ID NO: 118) mutated to substitute its motif 7.2 (SEQ ID NO: 70) first Y with motif 7.2 of SEQ ID NO: 1 (SEQ ID NO: 22)—i.e. to include the mutation Tyr243Phe; • GmHPPD.4=GmHPPD (SEQ ID NO: 118) mutated to substitute its motif 2.1 (SEQ ID NO: 57) with motif 2.1 of SEQ ID NO: 1 (SEQ ID NO: 11)—i.e. to include the mutation Ala254Trp to include SEQ ID NO: 129; • GmHPPD.5=GmHPPD (SEQ ID NO: 118) mutated to substitute its motif 3.1 with motif 3.1 of SEQ ID NO: 1—i.e. to include the replacement mutations 338-MPSPPP-343 to INVPG.

[7] = control (wt plants), Tembotrione 2500 and 500 μg/ml, Mesotrione 50 μg/ml, Topramezon 150 and 30 μg/ml, Isoxaflutole 50 μg/ml
[8] = T2 generation, Tembotrione x1=2500 and x0.2=500 μg/ml, Mesotrione x1=50 μg/ml, Topramezon x1=150 and x0.2=30 μg/ml, Isoxaflutole x1=50 μg/ml

Molecule | plant growth in the presence of the herbicide [1, 7] | plant growth in the presence of the herbicide [2, 8] | further results
CS(=O)(=O)c1ccc(C(=O)C2C(=O)CCCC2=O)c(Cl)c1COCC(F)(F)F [Tembotrione, tembotrione] | no plant growth or an acute growth inhibition and leaf bleaching | enabled growth | plant growth in the presence of the herbicide ([1]; control (non-transformed), 0.1% and 0.05% Tembotrione (Laudis)): no plant growth; plant growth in the presence of the herbicide ([2]; T1 plants on Basta selection, 0.1% and 0.05% Tembotrione (Laudis) 3-4 days post germination): enabled growth
CS(=O)(=O)c1ccc(C(=O)C2C(=O)CCCC2=O)c([N+](=O)[O-])c1 [Mesotrione, mesotrione] | no plant growth or an acute growth inhibition and leaf bleaching | enabled growth | –
Cc1c(C(=O)c2cnn(C)c2O)ccc(S(C)(=O)=O)c1C1=NOCC1 [Topramezone, topramezone] | no plant growth or an acute growth inhibition and leaf bleaching | enabled growth | –
CS(=O)(=O)c1cc(C(F)(F)F)ccc1C(=O)c1cnoc1C1CC1 [Isoxaflutole, isoxaflutole] | no plant growth or an acute growth inhibition and leaf bleaching | enabled growth | –
Cc1nn(C)c(OCC(=O)c2ccccc2)c1C(=O)c1ccc(Cl)cc1Cl [Pyrazoxyfen, pyrazoxyfen] | – | – | HPPD inhibitor concentration on plates at which HPPD activity (brown halo) was still detected [3]: ≤ 1250 µg/mL
B1 | – | – | HPPD activity (brown halo) on HPPD inhibitor plates [4]: poor HPPD activity if at all
B2 | – | – | HPPD enzymatic activity (brown halo) ([5]; 5 μM tembotrione): only minor enzymatic activity; HPPD enzymatic activity (brown halo) ([5]; 10 μM tembotrione): essentially no enzymatic activity; herbicide tolerance of transformed plants [6]: highly damaged

Reference: patent publication US11926837B2, “Compositions and methods for controlling plant growth” (PLANTARC BIO LTD., priority 2019, dated 2024)
